Converted amounts (≈) assume the structure as drawn. Read-outs that look alike come from different tables or passages of the source.
What was measured:
[1] = system: E. coli ATCC 25922; assay: Antibacterial screening, broth microdilution MIC; format: cell-based; conditions: Escherichia coli, ATCC25922; ATCC 25922, 24 h at 37 °C
[2] = system: S. aureus ATCC 29213; assay: Antibacterial screening, broth microdilution MIC; format: cell-based; conditions: Staphylococcus aureus, ATCC29213; ATCC 29213, 24 h at 37 °C; read-out: MIC S. aureus
[3] = system: Enterococcus faecalis ATCC 29212; assay: Antibacterial screening, broth microdilution MIC; format: cell-based; conditions: read-out: MIC E. faecalis
[4] = system: MRSA 63718; assay: Antibacterial screening, broth microdilution MIC; format: cell-based, methicillin-resistant S. aureus; conditions: Staphylococcus aureus, clinical isolate, 24 h at 37 °C, read-out: MIC MRSA 63718
[5] = system: MRSA SA 630; assay: Antibacterial screening, broth microdilution MIC; format: cell-based, methicillin-resistant S. aureus; conditions: Staphylococcus aureus, clinical isolate, 24 h at 37 °C, read-out: MIC MRSA SA 630
[6] = system: MRSA SA 3202; assay: Antibacterial screening, broth microdilution MIC; format: cell-based, methicillin-resistant S. aureus; conditions: Staphylococcus aureus, clinical isolate, 24 h at 37 °C, read-out: MIC MRSA SA 3202
[7] = system: VRE 342B; assay: Antibacterial screening, broth microdilution MIC; format: cell-based, vancomycin-resistant E. faecalis; conditions: Enterococcus, read-out: MIC VRE 342B
[8] = system: Mycobacterium tuberculosis ATCC 25177/H37Ra; assay: Antimycobacterial screening, broth dilution MIC (Alamar blue); format: cell-based; conditions: 336 h, H37Ra, 14 days at 37 °C, Alamar blue, read-out: MIC M. tuberculosis
Procedure: The evaluation of in vitro antimycobacterial activity of the compounds was performed against Mycobacterium tuberculosis ATCC 25177/H37Ra, Mycobacterium kansasii DSM 44162 and Mycobacterium smegmatis ATCC 700084.
The broth dilution micro-method in Middlebrook 7H9 medium (Difco, Lawrence, KS, USA) supplemented with ADC Enrichment (Difco) was used to determine the minimum inhibitory concentration (MIC) as previously described. […] The final concentrations of the evaluated compounds, ranging from 256 to 0.125 μg mL^-1, were obtained by twofold serial dilution of the stock solution in a microtiter plate with a sterile medium. Bacterial inocula were prepared by transferring colonies from culture to sterile water. The plate was inoculated by tested microorganisms. The final concentration of bacterial cells was 1.5×10^6 for M. tuberculosis and 10^5 cells in a microtiter plate for other mycobacteria. Isoniazid and rifampicin (Sigma) were used as reference antimycobacterial drugs. Drug-free controls, sterility controls, and controls consisting of medium and DMSO alone were included. The plates were incubated for a defined time at an appropriate temperature (3 days at 37 °C for M. smegmatis, and 14 days at 37 °C for M. tuberculosis and M. kansasii). […] The MICs against M. tuberculosis were evaluated by Alamar blue (Oxoid). After incubation, 10 % of Alamar blue was added to each well, and the plate was incubated for 24 h. The MIC values were assessed as the lowest concentration of the tested compounds, which prevented changing blue resazurin to pink resorufin. The experiments were repeated three times. The minimum inhibitory concentrations (MICs) were defined as the lowest concentration of the compound at which no visible bacterial growth was observed. The MIC value is routinely and widely used in bacterial assays and is a standard detection limit according to the CLSI [60].

[9] = system: VRE 368; assay: Antibacterial screening, broth microdilution MIC; format: cell-based, vancomycin-resistant E. faecalis; conditions: Enterococcus, read-out: MIC VRE 368
[10] = Lipophilicity determination by RP-HPLC (log k, log D); format: physicochemical; conditions: for log D6.5: RP-HPLC C18, MeOH 72 % / acetate-buffered saline pH 6.5; for log D7.4: RP-HPLC C18, MeOH 72 % / acetate-buffered saline pH 7.4; for log k (logarithm of the capacity factor): RP-HPLC C18, MeOH 72 % / water 28 %
Excerpt: An HPLC system Agilent 1200 equipped with a DAD detector (Agilent, Santa Clara, CA, USA) was used. A chromatographic column Symmetry® C18 5 μm, 4.6×250 mm, part No. WAT054275 (Waters Corp., Milford, MA, USA) was used. The HPLC separation process was monitored and evaluated with EZChrom Elite software ver. 3.3.2 (Agilent). Isocratic elution by a mixture of MeOH p.a. (72 %) and H2O-HPLC Mili-Q grade (28 %) as a mobile phase was used for the determination of capacity factor k. Isocratic elution by a mixture of MeOH p.a. (72 %) and acetate-buffered saline (pH 7.4 and pH 6.5) (28 %) as a mobile phase was used for the determination of distribution coefficients expressed as D7.4 and D6.5. The total flow of the column was 1.0 mL min^-1, the injection volume was 20 μL, the column temperature was 40 °C, and the sample temperature was 10 °C. The detection wavelength of 210 nm was chosen. A KI methanolic solution was used to determine the dead times (tD). Retention times (tR) were measured in minutes. The capacity factors k were calculated according to the formula k = (tR–tD)/tD, where tR is the retention time of the solute, and tD is the dead time obtained using an unretained analyte. The distribution coefficients DpH were calculated according to the formula DpH = (tR–tD)/tD. Each experiment was repeated three times.
The capacity factor and distribution coefficients were measured by RP-HPLC on a C18 column with methanol as an organic modifier of the mobile phase. In addition to the experimental lipophilicities, predicted log P values were also calculated using ACD/Percepta, see Table 1. […] The values of σ(Ar) are found in a wide range from 0.01 to 1.36, so the compounds contain substituents with both electron-donating and slightly electron-withdrawing properties.

[11] = system: Mycobacterium kansasii DSM 44162; assay: Antimycobacterial screening, broth dilution MIC; format: cell-based; conditions: DSM44162, 336 h, read-out: MIC M. kansasii
[12] = system: VRE 725B; assay: Antibacterial screening, broth microdilution MIC; format: cell-based, vancomycin-resistant E. faecalis; conditions: Enterococcus, read-out: MIC VRE 725B
[13] = system: Mycobacterium smegmatis ATCC 700084; assay: Antimycobacterial screening, broth dilution MIC; format: cell-based; conditions: Mycolicibacterium smegmatis, ATCC700084, 72 h; ATCC 700084, 3 days at 37 °C; read-out: MIC M. smegmatis
[14] = ATCC29212, ATCC 29212, 24 h at 37 °C

Row | Structure (SMILES) | MIC [1] [µM] | MIC [2] [µM] | MIC [3, 14] [µM] | MIC [4] [µM] | MIC [5] [µM] | MIC [6] [µM] | MIC ([3]; ATCC29212, 24 h) [µM] | MIC ([7]; 24 h) [µM] | MIC [8] [µM] | MIC ([9]; 24 h) [µM] | log D6.5 [10] | log D7.4 [10] | log k (logarithm of the capacity factor) [10] | MIC [11] [µM] | MIC ([12]; 24 h) [µM] | MIC ([7]; vanA isolate, 24 h at 37 °C) [µM] | MIC ([9]; vanA isolate, 24 h at 37 °C) [µM] | MIC ([11]; DSM 44162, 14 days at 37 °C) [µM] | MIC ([12]; vanA isolate, 24 h at 37 °C) [µM] | MIC [13] [µM]
1 | CC1(C)S[C@@H]2[C@H](NC(=O)[C@H](N)c3ccccc3)C(=O)N2[C@H]1C(=O)O [AMP, ampicillin, reference compound] | 45.8 (≈ 16 µg/mL) | 5.72 (≈ 2 µg/mL) | 2.81 (≈ 0.982 µg/mL) | 45.8 (≈ 16 µg/mL) | 45.8 (≈ 16 µg/mL) | 45.8 (≈ 16 µg/mL) | – | – | – | – | – | – | – | – | – | – | – | – | – | –
2 | COc1ccccc1NC(=O)c1c(O)ccc2ccccc12 [Compound 2, 2-hydroxy-N-(2-methoxyphenyl)naphthalene-1-carboxamide] | 873 (≈ 256 µg/mL) | – | – | – | – | – | > 873 | > 873 | > 873 | > 873 | 0.3015 | 0.3069 | 0.3181 | > 873 | > 873 | – | – | – | – | –
3 | COc1cccc(NC(=O)c2c(O)ccc3ccccc23)c1 [Compound 3, 2-hydroxy-N-(3-methoxyphenyl)naphthalene-1-carboxamide] | 873 (≈ 256 µg/mL) | 436 (≈ 128 µg/mL) | > 873 | 436 (≈ 128 µg/mL) | 873 (≈ 256 µg/mL) | – | – | – | 218 (≈ 63.9 µg/mL) | – | 0.1643 | 0.1717 | 0.1751 | – | – | > 873 | > 873 | 109 (≈ 32 µg/mL) | > 873 | –
4 | COc1ccc(NC(=O)c2c(O)ccc3ccccc23)cc1 [Compound 4, 2-hydroxy-N-(4-methoxyphenyl)naphthalene-1-carboxamide] | 873 (≈ 256 µg/mL) | > 873 | > 873 | > 873 | > 873 | > 873 | – | – | 109 (≈ 32 µg/mL) | – | -0.0491 | -0.0382 | -0.0380 | – | – | > 873 | > 873 | 218 (≈ 63.9 µg/mL) | > 873 | 436 (≈ 128 µg/mL)
5 | COc1ccc(OC)c(NC(=O)c2c(O)ccc3ccccc23)c1 [Compound 5, N-(2,5-Dimethoxyphenyl)-2-hydroxynaphthalene-1-carboxamide] | 792 (≈ 256 µg/mL) | 792 (≈ 256 µg/mL) | 792 (≈ 256 µg/mL) | 792 (≈ 256 µg/mL) | 792 (≈ 256 µg/mL) | 792 (≈ 256 µg/mL) | – | – | 396 (≈ 128 µg/mL) | – | 0.3263 | 0.3310 | 0.3353 | – | – | 792 (≈ 256 µg/mL) | 792 (≈ 256 µg/mL) | 792 (≈ 256 µg/mL) | 792 (≈ 256 µg/mL) | 792 (≈ 256 µg/mL)
6 | Cc1cccc(NC(=O)c2c(O)ccc3ccccc23)c1 [Compound 9, 2-hydroxy-N-(3--methylphenyl)naphthalene-1-carboxamide] | 462 (≈ 128 µg/mL) | – | 462 (≈ 128 µg/mL) | 462 (≈ 128 µg/mL) | – | – | – | – | 231 (≈ 64.1 µg/mL) | – | 0.1644 | 0.1727 | 0.1762 | – | – | 462 (≈ 128 µg/mL) | 462 (≈ 128 µg/mL) | 115 (≈ 31.9 µg/mL) | 462 (≈ 128 µg/mL) | –
7 | Cc1ccc(NC(=O)c2c(O)ccc3ccccc23)cc1 [Compound 10, 2-hydroxy-N-(4-methylphenyl)naphthalene-1-carboxamide] | 462 (≈ 128 µg/mL) | – | 462 (≈ 128 µg/mL) | 462 (≈ 128 µg/mL) | 462 (≈ 128 µg/mL) | 462 (≈ 128 µg/mL) | – | – | 231 (≈ 64.1 µg/mL) | – | 0.1553 | 0.1632 | 0.1658 | – | – | 462 (≈ 128 µg/mL) | 462 (≈ 128 µg/mL) | 115 (≈ 31.9 µg/mL) | 462 (≈ 128 µg/mL) | > 923
8 | NNC(=O)c1ccncc1 [INH, isoniazid, reference compound] | – | – | – | – | – | – | – | – | 36.5 (≈ 5.01 µg/mL) | – | – | – | – | – | – | – | – | 233 (≈ 32 µg/mL) | – | 117 (≈ 16 µg/mL)
9 | CO[C@H]1/C=C/O[C@@]2(C)Oc3c(C)c(O)c4c(O)c(c(/C=N/N5CCN(C)CC5)c(O)c4c3C2=O)NC(=O)/C(C)=C\C=C\[C@H](C)[C@H](O)[C@@H](C)[C@@H](O)[C@@H](C)[C@H](OC(C)=O)[C@@H]1C [RIF, rifampicin, reference compound] | – | – | – | – | – | – | – | – | 9.71 (≈ 7.99 µg/mL) | – | – | – | – | – | – | – | – | 0.15 (≈ 0.123 µg/mL) | – | 19.4 (≈ 16 µg/mL)

Reference: PMC11954145, “Antimicrobial and ADME properties of methoxylated, methylated and nitrated 2-hydroxynaphthalene-1 carboxanilides” (ADMET & DMPK, 2025)
